Measured values taken from PMC7765930, “Antiproliferative Phenanthrenes from Juncus tenuis: Isolation and Diversity-Oriented Semisynthetic Modification” (Molecules, 2020).
Like-named read-outs stand apart in the source and are kept apart here.

Assays:
[1] = test system: T-47D ductal carcinoma cell line; assay: MTT antiproliferative assay, T47D; type: cell-based, human; details: 72 h, 100–0.19 μM, read-out: IC50 (µM) ± SD T47D
Method: (§1) Breast cancer cell line MCF-7 (ATCC® HTB-22) and the drug-resistant subline of the human breast cancer MCF-7 (ECACC 86012803; KCR) were purchased from LGC Promochem (Teddington, UK). Both cell lines were cultured in Eagle’s Minimal Essential Medium (EMEM, containing 4.5 g/L glucose) supplemented with a non-essential amino acid mixture, a selection of vitamins, and 10% heat-inactivated fetal bovine serum. In every third passage, 0.56 µg/mL doxorubicin was added to the medium, in order to maintain the ABCB1 (P-glycoprotein) expression in KCR cells. A2780 human ovarian cancer cell line (ECACC, European Collection of Authentical Cell Culture, Sigma Cat.no. 93112519) was purchased from Merck KGaA (Darmstadt, Germany). The cisplatin-resistant human ovarian cancer cell line A2780cis (ECACC European Collection of Authentical Cell Culture, Sigma Cat.no. 93112517) was purchased from Merck KGaA (Darmstadt, Germany). The human ovarian cancer cell lines were cultured in RPMI 1640 medium supplemented with 10% heat-inactivated fetal bovine serum. […] HeLa (ATCC® CCL-2™) human cervix carcinoma cell line was purchased from LGC Promochem (Teddington, UK). The cells were cultured in Eagle’s Minimal Essential Medium (EMEM, containing 4.5 g/L glucose) supplemented with a non-essential amino acid mixture, a selection of vitamins, and 10% heat-inactivated fetal bovine serum. MRC-5 human embryonal lung fibroblast cell line (ATCC® CCL-171) was purchased from LGC Promochem, Teddington, UK. The cell line was cultured in Eagle’s Minimal Essential Medium (EMEM, containing 4.5 g/L glucose) supplemented with a non-essential amino acid mixture, a selection of vitamins, and 10% heat-inactivated fetal bovine serum. HTB-26 breast adenocarcinoma cell line was purchased from LGC Promochem, Teddington, UK. The cell line was cultured in RPMI 1640 medium supplemented with 10% heat-inactivated fetal bovine serum. T-47D (ATCC® HTB-133™) ductal carcinoma cell line was purchased from LGC Promochem, Teddington, UK. The cells were cultured in RPMI 1640 medium supplemented with 10% heat-inactivated fetal bovine serum, 2 mM L-glutamine, 1 mM Na-pyruvate, and 100 mM Hepes. All of the cells were incubated at 37 °C, in a 5% CO2 and 95% air atmosphere.
(§2) The antiproliferative effect of the compounds was determined on human breast (MCF-7, KCR, T47D, and HTB-26), cervical (HeLa), and ovarian (A2780 and A2780cis) cancer cells, and on MRC-5 (human embryonic lung fibroblast) cell lines. The adherent cells were cultured in 96-well flat-bottomed microtiter plates, using EMEM supplemented with 10% heat-inactivated fetal bovine serum or RPMI 1640 supplemented with 10% heat-inactivated fetal bovine serum, respectively. The density of the cells was adjusted to 6 × 10^3 cells in 100 μL per well, the cells were seeded for 24 h at 37 °C, with 5% CO2, and then the medium was removed from the plates, and fresh medium (100 μL per well) was added to the cells. The effects of increasing concentrations of compounds on cell proliferation were tested in 96-well flat-bottomed microtiter plates. The compounds were diluted in the appropriate medium; the dilutions of compounds were performed in separate plates and then added to the cells. The starting concentration of the compounds was 100 μM, and two-fold serial dilution was performed (concentration range: 100–0.19 μM). The culture plates were incubated at 37 °C for 72 h; at the end of the incubation period, 20 μL of MTT (thiazolyl blue tetrazolium bromide, Sigma) solution (from a stock solution of 5 mg/mL) was added to each well. After incubation at 37 °C for 4 h, 100 μL of sodium dodecyl sulfate (SDS) (Sigma) solution (10% in 0.01 M HCI) was added to each well, and the plates were further incubated, at 37 °C, overnight. Cell growth was determined by measuring the optical density (OD) at 540/630 nm, with a Multiscan EX ELISA reader (Thermo Labsystems, Cheshire, WA, USA). […]

[2] = test system: HTB-26 breast adenocarcinoma cell line; assay: MTT antiproliferative assay, HTB-26; type: cell-based, human; details: 100–0.19 μM, read-out: IC50 (µM) ± SD HTB-26
Method: as §1, §2

[3] = test system: cisplatin-resistant human ovarian cancer cell line A2780cis; assay: MTT antiproliferative assay, A2780cis; type: cell-based; details: 72 h, 100–0.19 μM, read-out: IC50 (µM) ± SD A2780cis
Method: as §1, §2

SMILES | IC50 [1] [µM] | IC50 ([2]; 72 h) [µM] | IC50 [3] [µM] | IC50 ([1]; Homo sapiens, T47D) [µM] | IC50 ([2]; Homo sapiens, HTB26, 72 h) [µM] | IC50 ([3]; Homo sapiens, A2780cis) [µM]
N.N.[Cl][Pt][Cl] [Cisplatin, cisplatin, reference compound] | 5.9 ± 0.1 | 20.1 ± 2.3 | 7.3 ± 0.2 |  |  | 
C=Cc1c(C)c(O)cc2c1-c1ccc(O)c(C)c1CC2 [juncusol] |  |  |  | 25 ± 0.4 | 41.7 ± 3.5 | 37.1 ± 2.8
C=Cc1cc(O)cc2c1-c1ccc(O)c(C)c1CC2 [effusol] |  |  |  | 24.6 ± 1.9 | 57 ± 2.7 | 30.4 ± 0.4
C=CC1=CC(=O)C=C2CCC3=C(C=CC(=O)C3(C)OC)C12OC (stereo not drawn) [Compound 3] |  |  |  | 7 ± 1 | 10.9 ± 0.9 | 10.9 ± 2.2

Results, then the molecule that gave them:

IC50 [1] [µM] | IC50 ([2]; 72 h) [µM] | IC50 [3] [µM] | IC50 ([1]; Homo sapiens, T47D) [µM] | IC50 ([2]; Homo sapiens, HTB26, 72 h) [µM] | IC50 ([3]; Homo sapiens, A2780cis) [µM] | SMILES
30.3 ± 2.5 | 45.8 ± 3.2 | 38 ± 4.6 |  |  |  | C=CC1=C(C)C(=O)C=C2CCC3=C(C=CC(=O)C3(C)OCC)C21OCC (stereo not drawn) [Compound 2b]
 |  |  | 36.5 ± 1 | 74.3 ± 3.6 | 88.2 ± 3.1 | C=CC1=C(C)C(=O)C=C2CCC3=C(C=CC(=O)C3(C)OC)C21OC (stereo not drawn) [Compound 1b]
 | 94.3 ± 2 |  | 56.3 ± 3.4 |  | 62.9 ± 1.7 | C=CC1=C(C)C(=O)C=C2CCC3=C(C=CC(=O)C3(C)OCC)C21OCC (stereo not drawn) [Compound 2a]
 |  |  | 11.6 ± 0.3 | 16.1 ± 0.2 | 22.5 ± 0.2 | C=CC1=CC(=O)C=C2CCC3=C(C=CC(=O)C3(C)OCC)C12OCC (stereo not drawn) [Compound 4a]
14.2 ± 0.6 | 20.1 ± 1.1 | 22.1 ± 1.6 |  |  |  | C=CC1=CC(=O)C=C2CCC3=C(C=CC(=O)C3(C)OCC)C12OCC (stereo not drawn) [Compound 4b]
